Tests used:
[1] = tested on: pulmonary fibrosis model; assay: Efficacy on bleomycin-induced pulmonary fibrosis model; format: in vivo; parameters: body weight of the animals (Mean ± SEM) / Weight of the left lung (Mean ± SEM) / Volume of the left lung (Mean ± SEM): unit not given here; conditions: for body weight of the animals (Mean ± SEM): PFD 50mpk BID PO
Protocol: Animals were anesthetized by inhaling isoflurane. After confirmation of anesthesia, the animals were sterilized, then the neck skin was cut, the muscles were bluntly separated to expose the trachea, and bleomycin (dosage: 3 mg/kg, volume: 1.0 mL/kg) was directly injected between the tracheal rings. After the operation, the animals were placed in a 37° C. electric blanket to keep warm until the animals were completely awakened. After confirming that they were able to eat and drink freely, the animals were returned to the cage for normal feeding.
In this experiment, there were four groups, i.e., model group (experimental group-1, […]), PFD group (experimental group-2, n=6), Slit2D2(C386S)-HSA-1 mg/kg (experimental group-3, n=6), and Slit2D2(C386S)-HSA-5 mg/kg (experimental group-4, n=6).
In this experiment, the positive control drug (PFD) was given to rats by gavage twice a day, which was started on the day of modeling, and administered continuously for 14 days. The test compound (Slit2D2(C386S)-HSA) was given intravenously once every other day, which was started on the day of modeling, and a total of seven doses were administered (as shown in table 6).
Physiological observation of the experimental animals: changes in body weight of the animals were measured (body weight was measured once a day before administration); and the death rate of animals during the test period was monitored.
Animals were euthanized 24 hours after the last administration on the 14th day of modeling. After confirming the death of the animals, the left lung was fixed by intrapulmonary infusion of formalin, and the volume and weight of the left lung after perfusion were measured for relevant examination of the pulmonary pathology.
General pathological examination: After the perfusion with an equal amount of formalin in the left lung, the wet weight of left lung after perfusion was weighed/recorded with a micro-balance; and the volume of left lung after perfusion was measured and recorded using a micro-measuring cup.
Pathological examination of lung tissue: The whole lung was dehydrated. Lung paraffin sections were made with paraffin blocks. […] HE staining and Masson Trichrome staining were performed according to pathological staining SOP, and whole section scanning was performed using a Digital Pathscope slice scanner. Pathological analysis and scoring of changes in damage and inflammation of terminal bronchioles and accompanying small pulmonary artery at the periphery of the lesions (as shown in Tables 7 and 8 and FIG. 7) were performed using the HE-stained sections. Lesion area calculation, lesion pathology analysis and scoring were performed with the Masson Trichrome-stained sections (as shown in Table 9 and FIG. 8).
The mean±sd or mean±sem was calculated using the graphpad prism software, and the significant difference test was performed using t-test, one-way ANOVA and two-way ANOVA test. A significant difference between the two groups was considered at p<0.05.

[2] = target: T1, Robo1 protein (Homo sapiens, UniProt Q9Y6N7); assay: Affinity of the fusion protein to receptor Robo1 determined by SPR; format: binding; conditions: Robo1 bound to CM5 chip
T1 construct: purchased ORIGEN TP327713
T1 sequence (Q9Y6N7 26-1651): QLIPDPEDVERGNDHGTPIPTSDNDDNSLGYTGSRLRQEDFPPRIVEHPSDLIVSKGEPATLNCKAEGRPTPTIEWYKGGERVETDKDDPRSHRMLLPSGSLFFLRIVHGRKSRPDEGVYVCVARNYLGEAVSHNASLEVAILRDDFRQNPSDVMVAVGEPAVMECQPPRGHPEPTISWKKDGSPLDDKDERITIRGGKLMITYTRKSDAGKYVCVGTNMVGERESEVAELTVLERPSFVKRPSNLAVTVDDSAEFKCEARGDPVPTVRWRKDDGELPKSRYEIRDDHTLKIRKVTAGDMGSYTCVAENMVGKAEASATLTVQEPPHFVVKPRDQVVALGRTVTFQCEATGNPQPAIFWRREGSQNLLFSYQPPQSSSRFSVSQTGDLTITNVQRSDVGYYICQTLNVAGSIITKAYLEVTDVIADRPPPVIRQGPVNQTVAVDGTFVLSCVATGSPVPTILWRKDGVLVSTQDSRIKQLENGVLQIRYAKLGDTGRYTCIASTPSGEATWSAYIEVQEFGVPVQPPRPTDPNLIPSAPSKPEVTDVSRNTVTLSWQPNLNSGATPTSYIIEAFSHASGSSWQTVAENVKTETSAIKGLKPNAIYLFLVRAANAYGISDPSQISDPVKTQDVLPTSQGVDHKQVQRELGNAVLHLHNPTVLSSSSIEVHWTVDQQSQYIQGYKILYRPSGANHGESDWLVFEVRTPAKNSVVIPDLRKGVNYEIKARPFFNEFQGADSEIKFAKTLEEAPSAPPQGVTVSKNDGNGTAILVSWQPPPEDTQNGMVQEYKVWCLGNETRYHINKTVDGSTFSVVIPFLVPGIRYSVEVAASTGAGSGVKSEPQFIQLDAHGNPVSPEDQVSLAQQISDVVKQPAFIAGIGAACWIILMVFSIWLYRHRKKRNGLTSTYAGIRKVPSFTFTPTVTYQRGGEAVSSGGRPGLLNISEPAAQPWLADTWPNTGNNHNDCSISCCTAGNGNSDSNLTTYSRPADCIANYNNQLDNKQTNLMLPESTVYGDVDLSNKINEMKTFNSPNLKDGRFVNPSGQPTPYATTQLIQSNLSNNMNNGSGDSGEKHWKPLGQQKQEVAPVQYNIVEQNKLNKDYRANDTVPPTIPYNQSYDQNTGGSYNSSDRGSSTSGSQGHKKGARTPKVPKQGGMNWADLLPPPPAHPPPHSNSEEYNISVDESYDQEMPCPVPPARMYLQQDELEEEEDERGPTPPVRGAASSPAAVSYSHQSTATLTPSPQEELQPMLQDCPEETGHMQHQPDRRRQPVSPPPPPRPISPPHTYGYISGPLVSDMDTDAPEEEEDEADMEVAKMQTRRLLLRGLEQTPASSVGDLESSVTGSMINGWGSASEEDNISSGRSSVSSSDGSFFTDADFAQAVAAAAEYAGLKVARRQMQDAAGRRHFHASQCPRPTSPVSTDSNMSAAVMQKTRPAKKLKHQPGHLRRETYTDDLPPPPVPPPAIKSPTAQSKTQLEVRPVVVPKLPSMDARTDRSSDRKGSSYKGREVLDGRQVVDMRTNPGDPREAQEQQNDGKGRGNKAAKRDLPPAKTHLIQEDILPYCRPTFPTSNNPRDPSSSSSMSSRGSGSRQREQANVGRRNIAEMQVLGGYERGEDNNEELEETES
Protocol: The affinity constant between the protein and Robo1 protein was detected by SPR (Surface Plasmon resonance BIAcore 200) method. The Robo1 protein (ORIGEN, Art. No.: TP327713) was bound to a CM5 chip, and the interaction between the fusion protein Slit2D2(C386S)-HSA (prepared in Example 1), Slit2D2-HSA (as disclosed in Patent Application PCT/CN2015/092079), and the receptor protein Robo1 were analyzed. Kinetic measurements were performed according to the method referred by Canziani et al. (2004, Anal. Biochem. 325: 301-307). Furthermore, the affinity of the Slit2N protein (Slit2N is a protein having a molecular weight of about 120 kDa at the N-terminus of the Slit2 protein) to Robo1 protein was also determined by the same method.

Ka [2] [M⁻¹ s⁻¹] | Molecule | body weight of the animals (Mean ± SEM) ([1]; Day 1) | body weight of the animals (Mean ± SEM) ([1]; Day 3) | body weight of the animals (Mean ± SEM) ([1]; Day 5) | body weight of the animals (Mean ± SEM) ([1]; Day 7) | body weight of the animals (Mean ± SEM) ([1]; Day 9) | body weight of the animals (Mean ± SEM) ([1]; Day 11) | body weight of the animals (Mean ± SEM) ([1]; Day 13) | inhibition on the progression of pulmonary fibrosis ([1]; continuous administration for 14 days, 50 mg/kg PO BID)
– | Cc1ccc(=O)n(-c2ccccc2)c1 [PFD, Pirfenidone, reference compound] | 279.4 ± 2.3 | 261.8 ± 3.9 | 265.0 ± 6.4 | 282.9 ± 7.4 | 298.4 ± 8.0 | 312.6 ± 8.8 | 321.7 ± 8.3 | significant inhibition
743600 | Slit2N: Protein having a molecular weight of about 120 kDa at the N-terminus of the Slit2 protein (protein) QCSCSGSTVDCHGLALRSVPRNIPRNTERLDLNGNNITRITKTDFAGLRHLRVLQLMENKISTIERGAFQDLKELERLRLNRNHLQLFPELLFLGTAKLYRLDLSENQIQAIPRKAFRGAVDIKNLQLDYNQISCIEDGAFRALRDLEVLTLNNNNITRLSVASFNHMPKLRTFRLHSNNLYCDCHLAWLSDWLRQRPRVGLYTQCMGPSHLRGHNVAEVQKREFVCSGHQSFMAPSCSVLHCPAACTCSNNIVDCRGKGLTEIPTNLPETITEIRLEQNTIKVIPPGAFSPYKKLRRIDLSNNQISELAPDAFQGLRSLNSLVLYGNKITELPKSLFEGLFSLQLLLLNANKINCLRVDAFQDLHNLNLLSLYDNKLQTIAKGTFSPLRAIQTMHLAQNPFICDCHLKWLADYLHTNPIETSGARCTSPRRLANKRIGQIKSKKFRCSAKEQYFIPGTEDYRSKLSGDCFADLACPEKCRCEGTTVDCSNQKLNKIPEHIPQYTAELRLNNNEFTVLEATGIFKKLPQLRKINFSNNKITDIEEGAFEGASGVNEILLTSNRLENVQHKMFKGLESLKTLMLRSNRITCVGNDSFIGLSSVRLLSLYDNQITTVAPGAFDTLHSLSTLNLLANPFNCNCYLAWLGEWLRKKRIVTGNPRCQKPYFLKEIPIQDVAIQDFTCDDGNDDNSCSPLSRCPTECTCLDTVVRCSNKGLKVLPKGIPRDVTELYLDGNQFTLVPKELSNYKHLTLIDLSNNRISTLSNQSFSNMTQLLTLILSYNRLRCIPPRTFDGLKSLRLLSLHGNDISVVPEGAFNDLSALSHLAIGANPLYCDCNMQWLSDWVKSEYKEPGIARCAGPGEMADKLLLTTPSKKFTCQGPVDVNILAKCNPCLSNPCKNDGTCNSDPVDFYRCTCPYGFKGQDCDVPIHACISNPCKHGGTCHLKEGEEDGFWCICADGFEGENCEVNVDDCEDNDCENNSTCVDGINNYTCLCPPEYTGELCEEKLDFCAQDLNPCQHDSKCILTPKGFKCDCTPGYVGEHCDIDFDDCQDNKCKNGAHCTDAVNGYTCICPEGYSGLFCEFSPPMVLPR | – | – | – | – | – | – | – | –

— patent US10947296B2, “Fusion protein Slit2D2(C386S)-HSA and use thereof in treatment of fibrotic diseases” (SUZHOU THINKING POWER BIOTECHNOLOGY CO., LTD., priority 2016, dated 2021)
